The text below walks through data of US9949929B2, “Drug carrier and manufacturing method thereof” (National Taiwan University Hospital, priority 2015, dated 2018).

Series [1] has as its system cancer cells. Put plainly: cell viability of cancer cells treated with nanomicelles, drug-encapsulating nanomicelles or free Doxorubicin. It counts as cell-based. Further details: dose or concentration left out as unconfirmed. The source says:
(§1) The drug carriers of example 1 and example 2 are used for preparing nanomicelles and drug-encapsulating nanomicelles so as to undergo the following tests. When preparing the nanomicelles, the dried drug carriers are uniformly dissolved in dimethyl sulfoxide (DMSO) to obtain a drug-carrier-DMSO solution. Next, the dimethyl sulfoxide (DMSO) in the drug-carrier-DMSO solution is removed by lyophilization, and the nanomicelles formed by self-assembly of the drug carriers are left. Last, the nanomicelles are put into a phosphate buffered saline (PBS) and sonicated for 20 min; therefore, the nanomicelles are uniformly dissolved in the phosphate buffered saline (PBS) for the following tests.
When preparing the drug-encapsulating nanomicelles, the drug molecules selected to be encapsulated in the nanomicelles are Doxorubicin (Doxo). First, the dried drug carriers and Doxorubicin molecules are uniformly dissolved in dimethyl sulfoxide (DMSO) to obtain a drug-carrier-Doxorubicin-DMSO solution. Next, the dimethyl sulfoxide (DMSO) in the drug-carrier-Doxorubicin-DMSO solution is removed by lyophilization, and the drug-encapsulating nanomicelles formed by self-assembly of the drug carriers as well as Doxorubicin crystals which are not encapsulated in the drug-encapsulating nanomicelles are left. […]

The nature of series [2]: temperature increase of samples irradiated by near-infrared laser (photothermal). It counts as physicochemical. The following applies: near-infrared laser 1 W/cm^2, 650 nm.
Source text: as §1
When preparing the drug-encapsulating nanomicelles, the drug molecules selected to be encapsulated in the nanomicelles are Doxorubicin (Doxo). First, the dried drug carriers and Doxorubicin molecules are uniformly dissolved in dimethyl sulfoxide (DMSO) to obtain a drug-carrier-Doxorubicin-DMSO solution. […]
Please refer to FIG. 5. […] When a temperature increase of samples irradiated by near-infrared light (NIR) is measured, the near-infrared light is a near-infrared laser, and the samples are the phosphate buffered saline (PBS), the Doxorubicin (Doxo), the nanomicelles and the drug-encapsulating nanomicelles which encapsulate the Doxorubicin (Doxo). […]

On to `COc1cccc2c1C(=O)c1c(O)c3c(c(O)c1C2=O)C[C@@](O)(C(=O)CO)C[C@@H]3O[C@H]1C[C@H](N)[C@H](O)[C@H](C)O1` [Doxorubicin (Doxo), Doxorubicin], for which, in series [1], the “cell viability of the cancer cell” value worked out at 80%. In addition, the “temperature change as irradiation time is increased” value in series [2] is on record as “no significant change”.
